In US9550739B2, “Molecules having certain pesticidal utilities, and intermediates, compositions, and processes related thereto” (priority 2014, dated 2017):

Legend:
Format in all cases: in vivo
[1] = system: Beet Armyworm (Spodoptera exigua, LAPHEG) ("BAW"); assay: Bioassays on Beet Armyworm (BAW), 128-well diet tray assay; conditions: Spodoptera exigua, 168 h; second instar BAW larvae, 50 μg/cm^2 on artificial diet, five to seven days, 25° C.; read-out: BAW % Control (or Mortality) rating
Protocol: (§1) Certain molecules disclosed in this document were tested against BAW and CEW using procedures described in the following examples. In the reporting of the results, the “BAW & CL Rating Table” was used (See Table Section).
Bioassays on BAW were conducted using a 128-well diet tray assay. one to five second instar BAW larvae were placed in each well (3 mL) of the diet tray that had been previously filled with 1 mL of artificial diet to which 50 μg/cm^2 of the test compound (dissolved in 50 μL of 90:10 acetone-water mixture) had been applied (to each of eight wells) and then allowed to dry. Trays were covered with a clear self-adhesive cover and held at 25° C., 14:10 light-dark for five to seven days. Percent mortality was recorded for the larvae in each well; activity in the eight wells was then averaged. The results are indicated in the table entitled “Table ABC: Biological Results” (See Table Section).

[2] = system: Cabbage Looper (Trichoplusia ni, TRIPNI) ("CL"); assay: Bioassays on Cabbage Looper (CL), 128-well diet tray assay; conditions: Trichoplusia ni, 168 h, read-out: CL % Control (or Mortality) rating
Protocol: as §1
Bioassays on CL were conducted using a 128-well diet tray assay. one to five second instar CL larvae were placed in each well (3 mL) of the diet tray that had been previously filled with 1 mL of artificial diet to which 50 μg/cm^2 of the test compound (dissolved in 50 μL of 90:10 acetone-water mixture) had been applied (to each of eight wells) and then allowed to dry. Trays were covered with a clear self-adhesive cover and held at 25° C., 14:10 light-dark for five to seven days. Percent mortality was recorded for the larvae in each well; activity in the eight wells was then averaged. The results are indicated in the table entitled “Table ABC: Biological Results” (See Table Section).

[3] = system: Yellow Fever Mosquito (Aedes aegypti, AEDSAE) ("YFM"); conditions: about 1 day-old larvae, 4000 ppm master solution diluted, 3 days, room temperature
Protocol: Certain molecules disclosed in this document were tested against YFM using procedures described in the following paragraph. In the reporting of the results, the “YFM Rating Table” was used (See Table Section).
Master plates containing 400 μg of a molecule dissolved in 100 μL of dimethyl sulfoxide (DMSO) (equivalent to a 4000 ppm solution) are used. A master plate of assembled molecules contains 15 μL per well. To this plate, 135 μL of a 90:10 water:acetone mixture is added to each well. A robot (Biomek® NXP Laboratory Automation Workstation) is programmed to dispense 15 μL aspirations from the master plate into an empty 96-well shallow plate (“daughter” plate). There are 6 reps (“daughter” plates) created per master. The created daughter plates are then immediately infested with YFM larvae.
The day before plates are to be treated, mosquito eggs are placed in Millipore water containing liver powder to begin hatching (4 g. into 400 mL). After the daughter plates are created using the robot, they are infested with 220 μL of the liver powder/larval mosquito mixture (about 1 day-old larvae). After plates are infested with mosquito larvae, a non-evaporative lid is used to cover the plate to reduce drying. Plates are held at room temperature for 3 days prior to grading. After 3 days, each well is observed and scored based on mortality.

SMILES | mortality at 50 µg/cm2 [1] [%] | mortality at 50 µg/cm2 [2] [%] | YFM % Control (or Mortality) rating [3]
COc1ccccc1-c1cc(C(=O)N(CC2CC2)c2ccc(-c3ncn(-c4ccc(OC(F)(F)F)cc4)n3)cc2)ccc1F [F66, N-(cyclopropylmethyl)-6-fluoro-2′-methoxy-N-(4-(1-(4-(trifluoromethoxy)phenyl)-1H-1,2,4-triazol-3-yl)phenyl)-[1,1′-biphenyl]-3-carboxamide] | 50 to 100 | 50 to 100 | D (No activity noticed in this bioassay)
Cc1ccccc1-c1cccc(C(=O)Nc2ccc(-c3ncn(-c4ccc(OC(F)(F)F)cc4)n3)cc2)c1 [F17, 2′-Methyl-N-(4-(1-(4-(trifluoromethoxy)phenyl)-1H-1,2,4-triazol-3-yl)phenyl)-[1,1′-biphenyl]-3-carboxamide] | 50 to 100 | 50 to 100 | D (No activity noticed in this bioassay)
CCCN(C(=O)c1ccc(F)c(-c2ccccc2OC)c1)c1ccc(-c2ncn(-c3ccc(OC(F)(F)F)cc3)n2)cc1 [F65, 6-Fluoro-2′-methoxy-N-propyl-N-(4-(1-(4-(trifluoromethoxy)phenyl)-1H-1,2,4-triazol-3-yl)phenyl)-[1,1′-biphenyl]-3-carboxamide] | 50 to 100 | 50 to 100 | D (No activity noticed in this bioassay)
O=C(Nc1ccc(-c2ncn(-c3ccc(OC(F)(F)F)cc3)n2)cc1)c1ccc(F)c(-c2ccccc2)c1 [F11, 6-Fluoro-N-(4-(1-(4-(trifluoromethoxy)phenyl)-1H-1,2,4-triazol-3-yl)phenyl)-[1,1′-biphenyl]-3-carboxamide] | 50 to 100 | 50 to 100 | D (No activity noticed in this bioassay)
CN(C)c1ccccc1-c1cccc(C(=O)NCCc2ccc(-c3ncn(-c4ccc(OC(F)(F)F)cc4)n3)cc2)c1 [F52, 2′-(Dimethylamino)-N-(4-(1-(4-(trifluoromethoxy)phenyl)-1H-1,2,4-triazol-3-yl)phenethyl)-[1,1′-biphenyl]-3-carboxamide] | 50 to 100 | 50 to 100 | A (80-100)
COc1ccccc1-c1cc(C(=O)Nc2ccc(-c3ncn(-c4ccc(OC(C)C)cc4)n3)cc2)ccc1F [F4, 6-Fluoro-N-(4-(1-(4-isopropoxyphenyl)-1H-1,2,4-triazol-3-yl)phenyl)-2′-methoxy-[1,1′-biphenyl]-3-carboxamide] | 50 to 100 | 50 to 100 | B (More than 0-Less than 80)
COc1ccc(-c2cccc(C(=O)Nc3ccc(-c4ncn(-c5ccc(OC(F)(F)F)cc5)n4)cc3)c2)c(C)c1 [F49, 4′-Methoxy-2′-methyl-N-(4-(1-(4-(trifluoromethoxy)phenyl)-1H-1,2,4-triazol-3-yl)phenyl)-[1,1′-biphenyl]-3-carboxamide] | 50 to 100 | 50 to 100 | B (More than 0-Less than 80)
Cc1ccccc1-c1cc(C(=O)NCCc2ccc(-c3ncn(-c4ccc(OC(F)(F)F)cc4)n3)cc2)ccc1F [F53, 6-Fluoro-2′-methyl-N-(4-(1-(4-(trifluoromethoxy)phenyl)-1H-1,2,4-triazol-3-yl)phenethyl)-[1,1′-biphenyl]-3-carboxamide] | 50 to 100 | 50 to 100 | A (80-100)
O=C(Nc1ccc(-c2ncn(-c3ccc(OC(F)(F)C(F)(F)F)cc3)n2)cc1)c1ccc(F)c(-c2ccccc2)c1 [F40, 6-Fluoro-N-(4-(1-(4-(perfluoroethoxy)phenyl)-1H-1,2,4-triazol-3-yl)phenyl)-[1,1′-biphenyl]-3-carboxamide] | 0 | 50 to 100 | D (No activity noticed in this bioassay)
CN(C)c1ccccc1-c1cccc(C(=O)Nc2ccc(-c3ncn(-c4ccc(OC(F)(F)F)cc4)n3)cc2)c1 [F10, 2′-(Dimethylamino)-N-(4-(1-(4-(trifluoromethoxy)phenyl)-1H-1,2,4-triazol-3-yl)phenyl)-[1,1′-biphenyl]-3-carboxamide] | 50 to 100 | 50 to 100 | B (More than 0-Less than 80)
COc1ccccc1-c1cccc(C(=O)Nc2ccc(-c3ncn(-c4ccc(OC(F)(F)C(F)(F)F)cc4)n3)cc2)c1 [F26, 2′-Methoxy-N-(4-(1-(4-(perfluoroethoxy)phenyl)-1H-1,2,4-triazol-3-yl)phenyl)-[1,1′-biphenyl]-3-carboxamide] | 50 to 100 | 50 to 100 | A (80-100)
COc1ccccc1-c1cccc(C(=O)N(C)c2ccc(-c3ncn(-c4ccc(OC(F)(F)F)cc4)n3)cc2)c1 [F19, 2′-methoxy-N-methyl-N-(4-(1-(4-(trifluoromethoxy)phenyl)-1H-1,2,4-triazol-3-yl)phenyl)-[1,1′-biphenyl]-3-carboxamide] | 50 to 100 | 50 to 100 | A (80-100)
COc1ccccc1-c1cc(C(=O)N(C(C)=O)c2ccc(-c3ncn(-c4ccc(OC(F)(F)F)cc4)n3)cc2)ccc1F [F67, N-acetyl-6-fluoro-2′-methoxy-N-(4-(1-(4-(trifluoromethoxy)phenyl)-1H-1,2,4-triazol-3-yl)phenyl)-[1,1′-biphenyl]-3-carboxamide] | 50 to 100 | 50 to 100 | A (80-100)
CC(=O)c1ccccc1-c1cccc(C(=O)Nc2ccc(-c3ncn(-c4ccc(OC(F)(F)C(F)(F)F)cc4)n3)cc2)c1 [F9, 2′-Acetyl-N-(4-(1-(4-(perfluoroethoxy)phenyl)-1H-1,2,4-triazol-3-yl)phenyl)-[1,1′-biphenyl]-3-carboxamide] | 50 to 100 | 50 to 100 | A (80-100)
COc1ccc(C(=O)Nc2ccc(-c3ncn(-c4ccc(OC(F)(F)F)cc4)n3)cc2)cc1-c1ccccc1 [F37, 6-Methoxy-N-(4-(1-(4-(trifluoromethoxy)phenyl)-1H-1,2,4-triazol-3-yl)phenyl)-[1,1′-biphenyl]-3-carboxamide] | 50 to 100 | 50 to 100 | A (80-100)
COc1ccccc1-c1cccc(C(=S)Nc2ccc(-c3ncn(-c4ccc(OC(F)(F)F)cc4)n3)cc2)c1 [F21, 2′-Methoxy-N-(4-(1-(4-(trifluoromethoxy)phenyl)-1H-1,2,4-triazol-3-yl)phenyl)-[1,1′-biphenyl]-3-carbothioamide] | 50 to 100 | 50 to 100 | A (80-100)
COc1ccccc1-c1cc(C(=O)Nc2ccc(-c3ncn(-c4ccc(C(F)(F)F)cc4)n3)cc2)ccc1F [F20, 6-fluoro-2′-methoxy-N-(4-(1-(4-(trifluoromethyl)phenyl)-1H-1,2,4-triazol-3-yl)phenyl)-[1,1′-biphenyl]-3-carboxamide] | 50 to 100 | 50 to 100 | A (80-100)
O=C(Nc1ccc(-c2ncn(-c3ccc(OC(F)(F)F)cc3)n2)cc1)c1cccc(-c2ccccc2)n1 [F27, 6-Phenyl-N-(4-(1-(4-(trifluoromethoxy)phenyl)-1H-1,2,4-triazol-3-yl)phenyl)picolinamide] | 0 to 50 | 0 | D (No activity noticed in this bioassay)
O=C(Nc1ccc(-c2ncn(-c3ccc(OC(F)(F)F)cc3)n2)cc1)c1cc(Cl)cc(-c2ccccc2)c1 [F43, 5-Chloro-N-(4-(1-(4-(trifluoromethoxy)phenyl)-1H-1,2,4-triazol-3-yl)phenyl)-[1,1′-biphenyl]-3-carboxamide] | 50 to 100 | 50 to 100 | D (No activity noticed in this bioassay)
